Experimental data published in US20050203102A1, “antibacterial agents” (priority 2004, published 2005).
Converted amounts (≈) assume the structure as drawn.

Key:
Test in all cases: Antimicrobial testing, Agar Dilution Method (NCCLS), MIC
Type in all cases: cell-based
[1] = test system: E. faecium ATCC 700221; conditions: Enterococcus faecium, ATCC700221, Mueller Hinton Agar, 35° C., 20 hours, read-out: Antimicrobial Screening (MIC) E. faecium ATCC 700221
Experimental: (§1) Briefly, the compounds of invention were weighed, dissolved in Dimethyl Sulfoxide, serially diluted in the same solvent and then incorporated into molten Mueller Hinton Agar in a petridish before solidification, with each petridish containing a different concentration of a compound.
(§2) The Bacterial Inoculum was prepared by touching the tops of 3 to 5 well isolated bacterial colonies with the same morphological appearance from an 18 hour old culture with an inoculating loop, transferring the growth to a tube containing 5 ml of normal saline and adjusting the turbidity of the saline suspension to 0.5 Macfarland Turbidity Standard equivalent to a bacterial population of 1.5×10^8 colony forming units (CFU) per millilitre of suspension.
(§3) The bacterial inoculum prepared in the above manner was inoculated onto petri dishes containing Mueller Hinton Agar which had earlier been incorporated with different dilutions of the compounds of invention by a Multipoint Inoculator with each inoculum spot containing approximately 1×10^4 colony forming units (CFU) of bacteria.
(§4) The inoculated petridishes were incubated at 35° C. in an ambient atmosphere for 20 hours. Petridishes containing different concentrations of Vancomycin and Oxacillin and inoculated with Staphylococcus aureus, Coagulase Negative Staphylococci and Enterococci were incubated for 24 hours.
(§5) The following minimum inhibitory concentrations (μg/ml) were obtained for representative compounds of the invention which are given in the following table: […]

[2] = test system: E. faecalis ATCC 29212; conditions: Enterococcus faecalis, ATCC29212, Mueller Hinton Agar, 35° C., 20 hours, read-out: Antimicrobial Screening (MIC) E. faecalis ATCC 29212
Experimental: as §1, §2, §3, §4, §5

[3] = test system: S. aureus MRO 00001; conditions: Staphylococcus aureus, MRO00001, Mueller Hinton Agar, 35° C., 20 hours, read-out: Antimicrobial Screening (MIC) S. aureus MRO 00001
Experimental: as §1, §2, §3, §4, §5

[4] = test system: S. epidermidis MRO 02002; conditions: Staphylococcus epidermidis, MRO02002, Mueller Hinton Agar, 35° C., 20 hours, read-out: Antimicrobial Screening (MIC) S. epidermidis MRO 02002
Experimental: as §1, §2, §3, §4, §5

| MIC [1] [µg/mL] | MIC [2] [µg/mL] | MIC [3] [µg/mL] | MIC [4] [µg/mL] | Structure (SMILES) |
| --- | --- | --- | --- | --- |
| 1 (≈ 2.27 µM) | 2 (≈ 4.54 µM) | 1 (≈ 2.27 µM) | 1 (≈ 2.27 µM) | CC(=O)NC[C@H]1CN(c2ccc(N3CCN(c4ccc(C=O)cc4)CC3)c(F)c2)C(=O)O1 [Example 1] |
| 2 (≈ 3.26 µM) | 2 (≈ 3.26 µM) | 2 (≈ 3.26 µM) | 2 (≈ 3.26 µM) | CC(=O)NC[C@H]1CN(c2ccc(N3CCN(c4ccc(/C=C5/SC(=S)N(CC(=O)O)C5=O)cc4)CC3)c(F)c2)C(=O)O1 [Example 2] |
| 16 (≈ 28.8 µM) | > 16 | > 16 | > 16 | CC(=O)NC[C@H]1CN(c2ccc(N3CCN(c4ccc(/C=C5\C(=O)Nc6ccccc65)cc4)CC3)c(F)c2)C(=O)O1 [Example 3] |
| 1 (≈ 1.85 µM) | 1 (≈ 1.85 µM) | 1 (≈ 1.85 µM) | 1 (≈ 1.85 µM) | CC(=O)NC[C@H]1CN(c2ccc(N3CCN(c4ccc(/C=C5/SC(=O)NC5=O)cc4)CC3)c(F)c2)C(=O)O1 [Example 4] |
| 1 (≈ 1.8 µM) | 2 (≈ 3.6 µM) | 1 (≈ 1.8 µM) | 1 (≈ 1.8 µM) | CC(=O)NC[C@H]1CN(c2ccc(N3CCN(c4ccc(/C=C5/SC(=S)NC5=O)cc4)CC3)c(F)c2)C(=O)O1 [Example 5] |
| 4 (≈ 7.17 µM) | 4 (≈ 7.17 µM) | 4 (≈ 7.17 µM) | 4 (≈ 7.17 µM) | CC(=O)NC[C@H]1CN(c2ccc(N3CCN(c4ccc(CC5C(=O)Nc6ccccc65)cc4)CC3)c(F)c2)C(=O)O1 (some centres unmarked) [Example 6] |
| 8 (≈ 14.8 µM) | 8 (≈ 14.8 µM) | 8 (≈ 14.8 µM) | 8 (≈ 14.8 µM) | CC(=O)NC[C@H]1CN(c2ccc(N3CCN(c4ccc(CC5SC(=O)NC5=O)cc4)CC3)c(F)c2)C(=O)O1 (some centres unmarked) [Example 7] |
| 0.5 (≈ 0.875 µM) | 0.5 (≈ 0.875 µM) | 0.5 (≈ 0.875 µM) | 0.5 (≈ 0.875 µM) | COC(=S)NC[C@H]1CN(c2ccc(N3CCN(c4ccc(/C=C5\SC(=O)NC5=O)cc4)CC3)c(F)c2)C(=O)O1 [Example 8, (S)-N-3-[3-fluoro-4-(4-(5-methylene-1,3-thiazolidine-2,4-dione)phenylpiperazin-1-yl)phenyll-1,3-oxazolidin-2-one-5-methylthio carbamate] |
| 0.5 (≈ 0.9 µM) | 1 (≈ 1.8 µM) | 1 (≈ 1.8 µM) | 2 (≈ 3.6 µM) | COC(=O)NC[C@H]1CN(c2ccc(N3CCN(c4ccc(/C=C5\SC(=O)NC5=O)cc4)CC3)c(F)c2)C(=O)O1 [Example 9, (S)-N-3-13-fluoro-4-(4-(5-methylene-1,3-thiazolidine-2,4-dione)phenylpiperazin-1-yl)phenyll-1,3-oxazolidin-2-one-5-methyl carbamate] |
| 8 (≈ 12.7 µM) | 8 (≈ 12.7 µM) | 8 (≈ 12.7 µM) | 8 (≈ 12.7 µM) | COC(=O)NC[C@H]1CN(c2ccc(N3CCN(c4ccc(/C=C5/SC(=S)N(CC(=O)O)C5=O)cc4)CC3)c(F)c2)C(=O)O1 [Example 10] |
| > 16 | > 16 | > 16 | > 16 | COC(=O)NC[C@H]1CN(c2ccc(N3CCN(c4ccc(/C=C5/SC(=S)NC5=O)cc4)CC3)c(F)c2)C(=O)O1 [Example 11] |
| > 16 | > 16 | > 16 | > 16 | CCOC(=O)NC[C@H]1CN(c2ccc(N3CCN(c4ccc(/C=C5/SC(=S)N(CC(=O)O)C5=O)cc4)CC3)c(F)c2)C(=O)O1 [Example 12] |
| > 16 | > 16 | > 16 | > 16 | CCOC(=O)NC[C@H]1CN(c2ccc(N3CCN(c4ccc(/C=C5/SC(=S)NC5=O)cc4)CC3)c(F)c2)C(=O)O1 [Example 13] |
| 4 (≈ 7.17 µM) | 8 (≈ 14.3 µM) | 8 (≈ 14.3 µM) | 8 (≈ 14.3 µM) | COC(=O)NC[C@H]1CN(c2ccc(N3CCN(c4ccc(CC5SC(=O)NC5=O)cc4)CC3)c(F)c2)C(=O)O1 (stereo partly drawn) [Example 14, [(5S)-3-[3-fluoro-4-(4-(5-methy-1,3-thiazolidine-2,4-dione)phenylpiperazin-1-yl)phenyll-1,3-oxazolidin-2-one-5-methyl carbamate] |
| > 16 | > 16 | > 16 | > 16 | CCOC(=O)NC[C@H]1CN(c2ccc(N3CCN(c4ccc(CC5C(=O)Nc6ccccc65)cc4)CC3)c(F)c2)C(=O)O1 (some centres unmarked) [Example 15] |
| > 16 | > 16 | > 16 | > 16 | CCOC(=O)NC[C@H]1CN(c2ccc(N3CCN(c4ccc(CC5SC(=S)NC5=O)cc4)CC3)c(F)c2)C(=O)O1 (some centres unmarked) [Example 16] |
| 4 (≈ 6.97 µM) | 4 (≈ 6.97 µM) | 4 (≈ 6.97 µM) | 4 (≈ 6.97 µM) | COC(=O)NC[C@H]1CN(c2ccc(N3CCN(c4ccc(CC5C(=O)Nc6ccccc65)cc4)CC3)c(F)c2)C(=O)O1 (some centres unmarked) [Example 17] |
